Series [1] concerns SARS-CoV-2 Wuhan strain. Format: cell-based.
Series [2] deals with SARS-CoV-2 Wuhan strain. The conditions noted are these: VeroE6/TMPRSS2 cells, essentially in the same experimental condition; ref Ohashi et al. [29]; read-out: SARS-CoV-2 RNA IC50; cited from earlier work.
For a further series, the system named is VeroE6/TMPRSS2 cells. The following applies: read-out: Cell Viability CC50, essentially in the same experimental condition, ref Ohashi et al. [29]; cited from earlier work.
Series [3] relates to SARS-CoV-2 Wuhan strain. Description: microbe, parasite or virus in culture. Format: cell-based. The following applies: VeroE6/TMPRSS2 cells; for IC50: Severe acute respiratory syndrome coronavirus 2, Wuhan strain, MOI 0.003, extracellular viral RNA at 24 h.
A short description of series [4]: Cell viability (cell-counting kit-8, WST-8) in VeroE6/TMPRSS2 cells. The following applies: African green monkey, 24 h with compound. Format: cell-based. In general terms: Tetrazolium assays rely on reduction of a dye to a coloured formazan, in cell work by metabolically active cells.
For series [5], the system named is Dengue virus serotype 2 (DENV-2). Further details: method as in ref [12] = [12]. The conditions noted are these: Vero cells; ref [12]; read-out: IC50, DENV-2 infection; cited from earlier work.
The subject of another series is Zika virus (ZIKV). Also on record: method as in ref [14] = [14]. The following applies: Vero cells; ref [14]; read-out: IC50, ZIKV infection; cited from earlier work.
A further series concerns SARS-CoV-2. The conditions noted are these: Vero cells, read-out: IC50, SARS-CoV-2 infection, cited from earlier work.
The subject of series [6] is SARS-CoV-2 Wuhan strain. Description: microbe, parasite or virus in culture. The following applies: Severe acute respiratory syndrome coronavirus 2, 24 h, Calu-3 cells, 3 h inoculation plus 21 h, read-out: SARS-CoV-2 RNA IC50. Format: cell-based.
Series [7] in a line: Cell viability (cell-counting kit-8, WST-8) in Calu-3 cells. Format: cell-based. The conditions noted are these: human, 24 h with compound.
Series [8] has as its system Enterovirus 71 (EV71) replicon. Further details: method as in ref [10] = [10]. The following applies: Vero cells, estimated; ref [10]; read-out: IC50 to luciferase carrying EV71 replicon; cited from earlier work.
Series [9] relates to Chikungunya virus (CHIKV). Further details: method as in ref [11] = [11]. The conditions noted are these: U2OS or BHK-21 cells; ref [11]; read-out: IC50, CHIKV infection; cited from earlier work.
Another series has as its target helicase of DENV-2. Also on record: method as in ref [13] = [13]. The conditions noted are these: in vitro; ref [13]; read-out: IC50, DENV-2 helicase enzymatic activity; cited from earlier work.
In a further series the test system is 3CLpro. Further details: method as in ref [33] = [33]. The following applies: in vitro; ref [33]; read-out: IC50, 3CLpro enzymatic activity; cited from earlier work.
On the set-up of series [10]: method as in ref [7] = [7]. The conditions noted are these: human adults, 100 mg daily; ref [7]; cited from earlier work.

Molecules are shown by their SMILES. Where two headings read alike, the source gives them in different places. Starred links: 1 amine or outer side, 2 acyl side, 3 side chain; linkers in the order of their positions; H or OH if unused. Positions of bridges follow the written chain, without caps; N, C: chain ends. Non-standard residues stand in square brackets, D forms with d. Residues, ends and D or L forms follow the SMILES beside them. *: point of attachment. hTyr(3S-OH,4S-OH,3'-OSO3H) = N[C@H](C(=O)O)[C@H](O)[C@@H](O)c1ccc(O)c(OS(=O)(=O)O)c1; pTerphenylCO(4''-OnC5H11) = CCCCCOc1ccc(-c2ccc(-c3ccc(C(=O)*)cc3)cc2)cc1; Orn(4R-OH,5R-OH) = O=C([C@H](C[C@@H](O)[C@@H](O)N[*:3])N[*:1])[*:2]; hTyr(3S-OH,4S-OH) = N[C@H](C(=O)O)[C@H](O)[C@@H](O)c1ccc(O)cc1; Pro(3S-OH,4S-Me) = C[C@H]1CN[C@H](C(=O)O)[C@H]1O; X1 = CCCCCOc1ccc(-c2cc(-c3ccc(C(=O)*)cc3)no2)cc1; Gln(3R-OH) = NC(=O)C[C@@H](O)[C@H](N)C(=O)O; Hyp = O=C(O)[C@@H]1C[C@@H](O)CN1

On to `COc1ccc2cc1Oc1ccc(cc1)C[C@H]1c3c(cc4c(c3Oc3cc5c(cc3OC)CCN(C)[C@@H]5C2)OCO4)CCN1C` [Cepharanthine], for which, in the series with SARS-CoV-2 Wuhan strain [1], the “effect on viral RNA levels, compound added at post-entry phase” value is on record as “lower viral activity” and the “effect on viral RNA levels, compound added at virus entry phase” value is given as “considerable inhibition”. In the series on SARS-CoV-2 Wuhan strain [2], the IC50 (in general, the concentration at which inhibition is half-maximal) was 0.35 µM. Further, the CC50 (usually the concentration giving 50% cytotoxicity) in the series with VeroE6/TMPRSS2 cells is 25.1 µM.

With `CC[C@H](C)C[C@H](C)CCCCCCCCC(=O)N[C@H]1C[C@@H](O)[C@@H](NCCN)NC(=O)[C@@H]2[C@@H](O)CCN2C(=O)[C@H]([C@H](O)CCN)NC(=O)[C@H]([C@H](O)[C@@H](O)c2ccc(O)cc2)NC(=O)[C@@H]2C[C@@H](O)CN2C(=O)[C@H]([C@@H](C)O)NC1=O` [Caspofungin], the half-maximal inhibitory concentration (IC50) was above 64 µM in the series on SARS-CoV-2 Wuhan strain [3], 20.8 µM in series [5] and 75.8 µM with Zika virus (ZIKV). In addition, the “effect on viral RNA levels (in words)” value with SARS-CoV-2 Wuhan strain [3] (up to 64 µM) is “did not show any antiviral effect”. Further, the CC50 at 24 h in series [4] is above 64 µM.

Take `CCCCCOc1ccc(-c2ccc(-c3ccc(C(=O)N[C@H]4C[C@@H](O)[C@@H](O)NC(=O)[C@@H]5[C@@H](O)[C@@H](C)CN5C(=O)[C@H]([C@@H](C)O)NC(=O)[C@H]([C@H](O)[C@@H](O)c5ccc(O)cc5)NC(=O)[C@@H]5C[C@@H](O)CN5C(=O)[C@H]([C@@H](C)O)NC4=O)cc3)cc2)cc1` [Anidulafungin] ({pTerphenylCO(4''-OnC5H11)}-[Orn(4R-OH,5R-OH)]T[Hyp][hTyr(3S-OH,4S-OH)]T[Pro(3S-OH,4S-Me)]; lactam 1-C): the IC50 is 7.09 µM in the series with SARS-CoV-2 Wuhan strain [3], 3.24 µM in series [5], 2.08 µM with Zika virus (ZIKV) and 4.64 µM in the series with SARS-CoV-2 (ref [16]). For the same compound, the CC50 at 24 h in series [4] was 24.6 µM.

`CCC(CC)COC(=O)[C@H](C)N[P@](=O)(OC[C@H]1O[C@@](C#N)(c2ccc3c(N)ncnn23)[C@H](O)[C@@H]1O)Oc1ccccc1` [Remdesivir]: in the series on SARS-CoV-2 Wuhan strain [1], the “effect on viral RNA levels, compound added at post-entry phase” value is “remarkable antiviral activity” and the “effect on viral RNA levels, compound added at virus entry phase” value is given as “no inhibitory effect”. In addition, the IC50 in the series on SARS-CoV-2 Wuhan strain [2] is 1.58 µM. In addition, the CC50 in the series on VeroE6/TMPRSS2 cells is above 64 µM.

Take `CCCCCOc1ccc(-c2cc(-c3ccc(C(=O)N[C@H]4C[C@@H](O)[C@@H](O)NC(=O)[C@@H]5[C@@H](O)[C@@H](C)CN5C(=O)[C@H]([C@H](O)CC(N)=O)NC(=O)[C@H]([C@H](O)[C@@H](O)c5ccc(O)c(OS(=O)(=O)O)c5)NC(=O)[C@@H]5C[C@@H](O)CN5C(=O)[C@H]([C@@H](C)O)NC4=O)cc3)no2)cc1` [Micafungin] (X1-[Orn(4R-OH,5R-OH)]T[Hyp][hTyr(3S-OH,4S-OH,3'-OSO3H)][Gln(3R-OH)][Pro(3S-OH,4S-Me)]; lactam 1-C): the IC50 with SARS-CoV-2 Wuhan strain [3] was 26.1 µM; in the series with SARS-CoV-2 Wuhan strain [6], 55.3 µM; in [8], 5 to 8 µM; in [9] it was 20.6 µM; in series [5], 10.2 µM; with Zika virus (ZIKV) it was 7.35 µM. The IC50 in the series with SARS-CoV-2 (ref [15]) was 5.5 to 12.9 µM; at helicase of DENV-2, 4.98 µM; with 3CLpro it was 47.6 µM. For the same compound, the “selectivity index (SI = CC50/IC50)” value with SARS-CoV-2 Wuhan strain [3] is recorded as above 2.45. For the same compound, the CC50 at 24 h in series [4] and in series [7] was above 64 µM throughout. Also, the half-life – broadly, the time in which the quantity being followed falls by half – in series [10] is 11 to 17 h.

These data come from publication PMC9958940 (Viruses, 2023).
